Laboratory results from US20260041706A1, “MUCUS MEMBRANE FORMULATIONS AND USES THEREOF” (priority 2022, published 2026).
Several values for one entry are separate records, joined by “and”; a condition that tells them apart may be missing. Identical values can stand only once. Like-named read-outs stand apart in the source and are kept apart here.

Assays:
[1] = system: human nasal epithelial cell (RPMI-2650)-based monolayer
[2] = system: HKx31 Influenza A virus (H3N2); assay: In vitro neutralization assay with Influenza A (plaque assay in MDCK cells); assay type: cell-based; conditions: 10 or 60 min incubation; agent evaluated individually
Klebsiella pneumoniae = assay: In vitro neutralization assay with bacteria (CFU), K. pneumoniae; assay type: cell-based; conditions: incubation time of 30 min
Description: (§1) Neutralization was determined by measuring the bactericidal activity. Each agent was individually incubated with either E. coli or K. pneumoniae for 30 or 60 min, followed by 1-minute centrifugation, and then evaluating the bacterial load in the supernatant using a colony-forming assay.
(§2) An overnight culture of bacteria was prepared in 5 mL tryptic soy broth (TSB, Sigma Aldrich) media. On the day of the experiment, bacteria suspension was adjusted to obtain an OD600 nm=0.2, which corresponds to 10^8 CFU/mL. […] After incubation, the sample/bacteria mixture was 10-fold serially diluted in 1×PBS, and 10 mL of each dilution was plated onto pre-poured LB (Luria Broth, HiMedia Laboratories Pvt Ltd) agar plates followed by an incubation of 16-18 h at 37° C., 5% CO2. The plates were then counted for CFUs.

[3] = mouse, in vivo
Excerpt: (§3) To test our hypothesis, we compared nasal residence time of DiR-loaded mixture of gellan and pectin without or with surfactants.
(§4) In vivo biodistribution and nasal residence. Nasal residence time of the formulation was determine in mice. […] Mice were euthanized at different time points and nasal cavity was harvested and imaged using IVIS (Bruker's In-Vivo Xtreme optical and x-ray in vivo imaging system) at an excitation and emission wavelength of 680/700 nm. Vital organs such as lung, liver, spleen, kidney, and heart, were also imaged at 2 and 24 h time points. To determine the mechanism of long residence time, animals were intranasally instilled with DiR-mixed gellan (0.02% w/v) and pectin (0.75% w/v) mixture without or with BKC and tween-80. After 8 h, animals were euthanized to harvest and image the nasal cavity using Perkin Elmer IVIS Lumina II and the total flux was expressed in (p/sec/m^2/sr).

[4] = system: Escherichia coli (E. coli); assay: In vitro neutralization assay with bacteria (CFU), E. coli; assay type: cell-based; conditions: incubation time of 30 min
Description: as §1, §2

[5] = for fluorescence intensity (droplet capture) relative to mucus or biopolymer mixture without surfactant: surfactant 0.05% w/V in gellan (0.2% w/v) and pectin (0.75% w/v) mixture
SARS-CoV-2 mNG = assay: In vitro neutralization assay with SARS-CoV-2 (focus-forming assay in Vero E6 cells); assay type: cell-based
[6] = In vivo biodistribution and nasal residence (DiR fluorescence, IVIS); conditions: 8 h post-nasal administration, DiR-loaded
Excerpt: as §3, §4

RPMI 2650 cells = conditions: 0.5% w/v; 24 or 48 h incubation

Substance	change in TEER (in words) ([1]; Triton-X 0.1% w/v, negative control)	reduction in IAV viral titer in host cells in comparison to PBS [2] [log fold]	reduction in colony-forming units (CFU) of Klebsiella pneumoniae (Klebsiella pneumoniae) [log fold]	nasal residence of gellan and pectin mixture on addition of surfactant [3]	reduction in colony-forming units (CFU) of E. coli [4] [log fold]	capture of respiratory droplets (in words) ([5]; BKC at 0.01% w/v)	fluorescence intensity (droplet capture) relative to mucus or biopolymer mixture without surfactant [5] [fold]	surfactant concentration above which fluorescence intensity (droplet capture) increased significantly ([5]; surfactant combined with gellan/pectin mixture, vs mucus or only biopolymer mixture)	minimum concentration required to achieve >4-log fold (>99.99%) reduction in SARS-CoV-2 viral load (SARS-CoV-2 mNG) [% w/v]	reduction in SARS-CoV-2 viral load in host cells (SARS-CoV-2 mNG; 10 or 60 min incubation, agent evaluated individually)	neutralization efficiency of BKC against SARS-CoV-2 in presence of gellan or pectin (SARS-CoV-2 mNG; BKC 0.01% w/v, gellan 0.2% w/v or pectin 0.75% w/v, 10 min)	nasal residence of gellan and pectin mixture on addition of surfactant [6]	transient dip in TEER immediately after addition ([1]; irrespective of the concentrations evaluated)	time for TEER to reverse to original value after replacing with fresh medium ([1]; medium replaced at 4 h)	metabolic activity of RPMI-2650 cells (RPMI 2650 cells)
Triton X-100 [Triton-X, reference compound]	permanent change in the TEER														
benzalkonium chloride [BKC]		1	7	significantly enhanced the nasal residence	4	didn't increase the capture of respiratory droplets	4	higher than 0.01 % w/v	0.01	5 log fold and > 99.99%	not impacted				
polyoxyethylene 20 sorbitan monooleate [Tween-80]		1					4					significantly enhanced the nasal residence	less than 15%	less than 1 h	significant reduction in the metabolic activity
